Patent US8410056B2, “Pro-oxidant anti-cancer compounds” (priority 2006, dated 2013)
Entries after “also recorded” stand apart in the source; their conditions may differ.

Key:
MCF-7 cells = assay: Apoptosis, annexin V-FITC method; assay type: cell-based, human
Experimental: Cell culture and treatment. […] Cells were cultured in DMEM with 10% FCS, 100 U/ml penicillin and 100 μg/ml streptomycin at 37° C. in a humidified atmosphere of 5% CO2. Mitochondrial complex I-deficient (Breen and Scheffler 1979; DeFrancesco et al 1976; Scheffler et al 2004) and complex II-deficient cells (Albayrak et al 2003; Oostveen et al 1995) were grown in DMEM with 10% FCS, […] glucose and non-essential amino acids.
At approximately 70% confluency, cells were treated with up to 50 μM α-TOS (Sigma), up to 100 μM 3-BP (Aldrich) or 30 ng/ml of human recombinant tumor necrosis factor-related apoptosis—inducing ligand (TRAIL) (Weber et al, 2002) under normoxic or hypoxic conditions. For hypoxia, cells overlaid with nitrogen-purged medium were placed in a hypoxic chamber pre-flushed extensively with nitrogen. The hypoxic chamber with cells was then placed in the incubator as required. α-TOS was dissolved in ethanol and used such that the final ethanol concentration in cell culture medium was <0.1% (v/v). Stock solutions of 3-BP were prepared in PBS prior to use.
Apoptosis assessment. Apoptosis was quantified using the annexin V-FITC method, which detects phosphatidyl serine externalized in the early phases of apoptosis (Boersma et al, 1996). Briefly, cells were plated at 10^5 per well in 24-well plates and, after an overnight recuperation, treated with α-TOS or 3-BP alone or in combination. Floating and attached cells were harvested, washed with PBS, resuspended in 0.2 ml binding buffer (10 mM Hepes, 140 mM NaCl, 5 mM CaCl2, pH 7.4), incubated for 30 min at 4° C. with 2 μl annexin V-FITC (PharMingen), supplemented with 200 μl of 50 μg/ml propidium iodide (PI; Sigma), and analyzed by flow cytometry (FACScalibur, Becton Dickinson) using channel 1 for annexin V-FITC binding and channel 2 for PI staining. Cell death was quantified as the percentage of cells with increased annexin V binding and PI staining. […]

mesothelioma = assay: Clinical study, patient with mesothelioma; assay type: in vivo
Experimental: α-TOS was used to treat mesothelioma in a human cancer patient. […] The blood plasma levels were monitored and levels of α-TOS in the plasma attained 50 μM over prolonged periods during continual application. This is more than sufficient to kill the cancer cells based on in vitro analysis.
The patient was originally receiving high dose opiate medications, neuropathic pain medications, home oxygen, and was predicted to have a life expectancy of 6-8 weeks. After treatment with α-TOS, the patient no longer required analgesia or oxygen.
In December 2005, the patient started receiving transdermal delivery of α-TOS, prepared in a base cream and solubilised with dimethyl sulfoxide (DMSO).
In April 2007, therapy with α-TOS was commenced using a modified formulation mixed in a lipodermal cream (see below). […] In addition, a palpable lesion was visible growing out between the ribs and the right anterior chest wall. The patient was in very poor condition with a low ECOG- no CT scan could be performed at the time of commencing the α-TOS treatment because the patient was too moribund.
α-TOS formulation: 500 gms of Lipoderm cream plus 60 gms α-TOS compounded by the hospital pharmacy. About 30 gms of compounded mix was administered every few days, and the upper body was wrapped in plastic film (“saran wrap”) to improve absorption.

cancer cells = assay: IC50, killing of cancer cells in vitro; assay type: cell-based; settings: approximately
Source text: FIG. 9. […] IC50: Concentration in micromolar that is needed of a particular drug to induce 50% killing of cancer cells in vitro. −log Kd: inverse log of the particular drug's binding affinity.
In FIG. 9, the inventors analysed the correlation between the binding affinities of the vitamin E analogues for the ubiquinone site and their biological activity in causing apoptosis of cancer cells. The result indicates a direct relationship between the binding affinity to the site and their ability to kill cancer cells. The differences observed between the docking and the list of results reflects the biological accessibility of the compounds reaching the complex II target site. Thus, the IC50 reflects not only the ability of the analogues to bind to the site, but also their ability to enter across the cell membrane and gain access to the mitochondrial matrix. […] The best comparison would be made by comparing the Autodock results with an enzyme assay using purified complex II kits commercially available (MS201 COMPLEX II IMMUNOCAPTURE KIT MitoScience LLC, 1850 Millrace Drive, Suite 3A, Eugene, Oreg. 97403, USA, http://www.mitosciences.com).

[1] = test system: erbB2 highly positive breast carcinomas
Experimental: (A) Nude mice were inoculated with MCF-7 cells and, after tumors became established, the animals were treated once every 3 d with 10 μmoles per mouse of α-TOS dissolved in DMSO or with DMSO alone, by intraperitoneal (i.p.) injection. Tumor size was measured using calipers and was correlated to the size of the carcinomas at the onset of the therapy. Four animals were used in each group. The results shown are mean values±S.E. The symbol ‘*’ denotes significant difference (p<0.05). (B) Female FVB/N erbB2 mice with palpable tumors (see General Materials and Methods) received either 10 μmoles α-TOS solubilized in corn oil/4% ethanol (n=11) or the corn oil/4% ethanol alone (control, n=9) by i.p. injection once every 3 d, or 0.2 μmoles 3-BP (n=8) in PBS at the tumor site every day. Tumor size was recorded using calipers. Two independent experiments were conducted. Results are represented as mean values±S.E. The symbol ‘*’ denotes significant difference (p<0.05) in the analysis of variance between the 3-BP and α-TOS curves.
Mouse tumor experiments. Nude mice were inoculated subcutaneously with MCF-7 cells (2×10^6 cells/mouse). After tumors developed (diameter of 3-7 mm), mice were injected intraperitoneally with 10 μmoles α-TOS in DMSO every 3 days. Control mice were injected with an equal volume (100 μl) of DMSO only. Tumor size was estimated by measuring with digital calipers. A colony of transgenic FVB/N2O2 rat c-neu mice carrying the rat HER-2/neu protooncogene driven by the MMTV promoter on the H-2^q FVB/N background (Guy et al, 1992) was established at the Griffith University Animal Facility and maintained under strict inbreeding conditions. The presence of the transgene was routinely confirmed by PCR. Approximately 70% of the female mice developed spontaneous mammary carcinomas with a mean latency time of 10 months. Female transgenic FVB/N2O2 rat c-neu mice bearing progressively growing tumors with a mean diameter of 10±5 mm were randomly assigned to control or treatment groups. Tumor size was measured using digital calipers. […]

MCF-7 tumors = assay: MCF-7 xenograft in nude mice; assay type: in vivo; settings: 10 μmoles i.p. every 3 d
[2] = cited from earlier work

Structure (SMILES): Cc1c(C)c2c(c(C)c1OC(=O)CCC(=O)O)CC[C@@](C)(CCC[C@H](C)CCC[C@H](C)CCCC(C)C)O2 [Compound 1, α-tocopheryl succinate]
- apoptosis after CybL siRNA (MCF-7 cells; MCF7 cells treated with siRNA against CybL): reduced the levels of apoptosis mediated by α-TOS
- apoptosis (MCF-7 cells; MCF-7 (erbB2-low), 24 h, normoxia or hypoxia): sensitive to apoptosis induced by α-TOS under both normoxia and hypoxia
- clinical effect (mesothelioma; human patient, α-TOS therapy): worked very effectively; also recorded: shrunk dramatically
- side effects (mesothelioma; human patient, α-TOS therapy): non-toxic with no observable side-effects and was well tolerated; also recorded: no obvious side-effects from the α-TOS therapy apart from a mild itch
- levels of α-TOS in the plasma (mesothelioma; human, transdermal, continual application, over prolonged periods): 50 µM
- clinical response, DMSO base cream (mesothelioma; transdermal α-TOS in base cream solubilised with DMSO): showed clinical response
- side effects, DMSO base cream (mesothelioma; transdermal α-TOS in base cream solubilised with DMSO, about 8 weeks): major skin reaction problems secondary to DMSO
- IC50 (cancer cells): 40 to 50 µM
- reduction in the average size of tumors ([1]; about, over the 2 weeks of treatment, 10 μmoles i.p. every 3 d): 30-40%
- tumor growth ([1]; α-TOS 10 μmoles i.p. every 3 d, 3-BP 0.2 μmoles daily intratumorally): statistically more effective (p<0.05 by analysis of covariance) than 3-BP
- tumor growth (MCF-7 tumors): repressed the growth of tumors in the treated group of mice with an overall reduction in tumor size
- pKa [2]: < 6
